# Reference: PubChem BioAssay AID1996
# Details: buffer; pH 7.4; 200.0 µM
row,SMILES,solubility kinetic
1,C[C@@H]1C2CC(C/C2=N\NC(=O)c2ccncc2)C1(C)C (stereo partly specified),> 40.7 µg/mL
2,CCN1CCn2c3c(c4cccc(C)c42)CCCC31.Cl (stereo unspecified),33.6 µg/mL
3,O=C(CN1CCOCC1)Nc1ccc(Br)cc1,> 44.9 µg/mL
4,CC(C)(C)OC(=O)N1CCC(CNC(=O)c2ccc(F)cc2)CC1,> 50.5 µg/mL
5,CN(C)S(=O)(=O)c1cccc(NC(=O)NCCCl)c1,> 45.9 µg/mL
6,O=Cc1c(Nc2ccccc2Cl)nc2ccccn2c1=O,< 0.2 µg/mL
7,CN1CCN(C(=O)c2ccc(C(F)(F)F)cc2)CC1.Cl,> 46.3 µg/mL
8,Cc1cccc(C)c1NC(=O)C1CSC2(C)CCC(=O)N12 (stereo unspecified),> 45.7 µg/mL
9,S=c1nc(Cc2ccccc2)[nH]c2ccccc12,2.4 µg/mL
10,FC(F)(F)c1ccccc1N1CC1c1ccncc1 (stereo unspecified),31 µg/mL
11,CCN(C(=O)c1cccnc1SC)C12CC3CC(CC(C3)C1)C2,2.3 µg/mL
12,CCn1cc(S(=O)(=O)NC2CCCCC2)cn1,> 38.6 µg/mL
13,O=S(=O)(c1ccc(-c2cc(C(F)(F)F)on2)s1)N1CCCC1,1 µg/mL
14,Cc1ccc(C)c(C(=O)COC(=O)CN2C(=O)C3C4CCC(C4)C3C2=O)c1 (stereo unspecified),> 55.4 µg/mL
15,O=C(NCCc1cccs1)c1ccc(Cl)cc1,> 39.9 µg/mL
16,O=C(COC(=O)c1cc(=O)[nH]c2ccccc12)NCc1ccccc1,20.8 µg/mL
17,Cc1cccc(Nc2ccncc2S(=O)(=O)NC(=O)NC(C)C)c1,> 52.3 µg/mL
18,CC(=O)Nc1ccc(N2Cc3ccccc3C2)cc1,18.7 µg/mL
19,Cc1ccc(C(=O)Nc2ccc(Cl)cc2C)c(Cl)c1,< 0.6 µg/mL
20,Cc1ccc(C(=O)OCC(=O)N2CC(C)OC(C)C2)cc1 (stereo unspecified),> 43.7 µg/mL
21,Cc1cccc(NC2=NCCCS2)c1,> 30.9 µg/mL
22,N#Cc1ccc(OCCN2CCc3ccccc3C2)cc1,41 µg/mL
23,O=C(C1CCC1)N1CCN(c2ccccc2)CC1,35.6 µg/mL
24,Cc1cccc(NC(=O)Nc2ccc(F)cc2)n1,1.6 µg/mL
25,Clc1ccccc1CN1CCN(c2cccc3[nH]ccc23)CC1,23.5 µg/mL

row,SMILES,solubility kinetic
1,CCCc1cc(=O)[nH]c(SCC(=O)N2c3ccccc3NC(=O)C2(C)C)n1,57.4 µg/mL
2,CC(CNC(=O)c1ccc2c(c1)OCO2)c1ccc([N+](=O)[O-])cc1 (stereo unspecified),2 µg/mL
3,Cc1cccc(NC(=O)N2CCc3ccccc3C2)c1C,6.5 µg/mL
4,Cc1cc(O)c(CN(C)C)c2c1C(=O)/C(=C/c1ccco1)O2,> 44.9 µg/mL
5,O=S(=O)(Nc1ccon1)c1ccc(F)c(F)c1,25.9 µg/mL
6,CC(C)(C)c1ccc(C(=O)N2CCC(C(=O)NC3CC3)CC2)cc1,48 µg/mL
7,C=CCNc1nc(S(=O)Cc2ccc(C)cc2)nc2c1CCCC2 (stereo unspecified),> 51.2 µg/mL
8,N#Cc1ccc(CC(C(=O)O)N2Cc3ccccc3C2=O)cc1 (stereo unspecified),> 45.9 µg/mL
9,O=C(CNC(=O)c1ccc(Br)o1)NCC1COc2ccccc2O1 (stereo unspecified),> 59.3 µg/mL
10,CC(=O)NC(c1ccc(C(C)C)cc1)c1ccc2cccnc2c1O (stereo unspecified),0.4 µg/mL
11,COc1cccc(NC(=O)CNCc2ccccc2)c1.Cl,> 46 µg/mL
12,CCOc1ccc(NC(=O)C2CC(=O)N(Cc3ccco3)C2)cc1 (stereo unspecified),> 49.3 µg/mL
13,Cc1nc(SCC(=O)N2CCNC2=O)c2ccccc2n1,> 45.4 µg/mL
14,CC(=O)Nc1ccc(N/C=C/C(=O)c2ccc(Br)cc2)cc1,1 µg/mL
15,CCSc1ccccc1C(=O)Nc1ccc([N+](=O)[O-])cc1OC,1.4 µg/mL
16,CC(C)NC(=O)N1CCN(c2ccncc2S(=O)(=O)N2CCCCC2)CC1,> 59.3 µg/mL
17,CC(=O)c1c(COC(=O)c2ccc(C)cc2)nc2ccccc2[n+]1[O-],2.7 µg/mL
18,COc1cc(NC(=O)c2onc(C)c2Cl)cc(OC)c1OC,28.7 µg/mL
19,COc1ccc(NC(=S)NC(=O)Cc2ccccc2)cc1,19.2 µg/mL
20,O=C(c1ccccc1SCc1ccccc1)N1CCOCC1,45.9 µg/mL
21,CSc1ncc(Cl)c(C(=O)Nc2ccc(C)c(C)c2)n1,0.7 µg/mL
22,O=c1oc2ccc([N+](=O)[O-])cc2c(N2CCOCC2)c1[N+](=O)[O-],> 48.2 µg/mL
23,CC(C)[C@H](NC(=O)C1CCCC1)c1nc2ccccc2[nH]1,9.9 µg/mL
24,Cc1ccc(NC(=O)C2=C(C(=O)O)CCCC2)cc1F,26.9 µg/mL
25,C=CCOc1nc2sc(C)c(C)c2c(=O)n1-c1ccccc1,46.1 µg/mL

row,SMILES,solubility kinetic
1,COc1ccc(C2SCC(=O)N2c2ccc(C)cc2)cc1 (stereo unspecified),37.5 µg/mL
2,Cc1ccccc1-n1cc[nH]c1=S,> 28.5 µg/mL
3,Cc1cc(=O)[nH]c(SCC(=O)Nc2ccc(F)cc2)c1C#N,> 47.6 µg/mL
4,C=CCNC(=O)c1cccc(NS(=O)(=O)c2ccc(Cl)cc2)c1,49.9 µg/mL
5,Cc1ccccc1OCC(=O)NCCCNC(=O)c1cccnc1,> 49.1 µg/mL
6,Nc1cc(=O)[nH]c(SCC(=O)Nc2cccc(Cl)c2Cl)n1,8.4 µg/mL
7,CS(=O)(=O)c1ccc2nc(NC(=O)c3ccc(N4C(=O)CCC4=O)cc3)sc2c1,0.3 µg/mL
8,Cc1cc(C)cc(NC(=S)N2CCC(NC(=O)C3CC3)CC2)c1,> 49.7 µg/mL
9,COc1nc2ccccc2nc1N1CCN(Cc2ccc3c(c2)OCO3)CC1,2.9 µg/mL
10,COC(=O)c1sccc1NC(=O)Nc1cccc(C(C)=O)c1,19.1 µg/mL
11,O=P(Nc1ccccc1)(Oc1ccccc1)Oc1ccccc1,< 0.7 µg/mL
12,COc1cccc(/C=C/C(=O)OCC(=O)Nc2ccc(Cl)cn2)c1,< 0.4 µg/mL
13,CN(C)C(=O)c1ccc(-n2cnc3ccccc3c2=O)cc1,> 44 µg/mL
14,Cn1c(SCC(=O)O)nc2sc3c(c2c1=O)CCC3,> 44.5 µg/mL
15,CC(=O)Nc1nc2ccccc2n1Cc1ccccc1Cl,5.2 µg/mL
16,O=C(NCC1CCCO1)c1cc(-c2ccccc2)nc2ccccc12 (stereo unspecified),> 49.9 µg/mL
17,Nc1ccc(S(=O)(=O)NC2=NCCCCC2)cc1N,> 42.4 µg/mL
18,O=C1c2ccccc2C(=O)N1C1CCCCC1,1.3 µg/mL
19,N#CCCN(C(=O)CN1c2cccc3cccc(c23)S1(=O)=O)c1ccccc1,15 µg/mL
20,CCCn1c(SCC(=O)N2CC(=O)Nc3ccccc32)n[nH]c1=O,> 52.1 µg/mL
21,O=C(NCc1ccco1)c1cnn2cccnc12,> 36.3 µg/mL
22,O=C(CCCc1cccs1)Nc1nccs1,26.8 µg/mL
23,FC(F)(F)c1nc(NCc2cccnc2)c2ccccc2n1,2.6 µg/mL
24,CNC(=O)c1cc2c(s1)-c1ccccc1CC2,5.2 µg/mL
25,COC(=O)c1sc(N(C)C)c(C#N)c1-c1ccccc1,1.8 µg/mL

row,SMILES,solubility kinetic
1,Cc1cc(/C=C(\C#N)C(=O)NCc2ccco2)c(C)n1-c1cccnc1,10.7 µg/mL
2,COc1ccccc1OCCNC(=O)Nc1ccc(Br)cc1,1.3 µg/mL
3,Cc1cc2oc(=O)cc(Cn3ccnc3)c2cc1Cl,34.3 µg/mL
4,O=C1Nc2ccccc2OCc2c1cccc2[N+](=O)[O-],3.9 µg/mL
5,O=C(NCc1ccccc1)c1ccc(=O)oc1,> 34.4 µg/mL
6,O=C(Cc1ccc(F)cc1)N1CCN(c2ccc([N+](=O)[O-])cc2)CC1,3.5 µg/mL
7,CC(=O)NCCc1nc2cc(NC(=O)c3ccc(Cl)cc3)ccc2n1C,35.7 µg/mL
8,CC(C)NC(=O)C1c2ccccc2Oc2ccccc21,1.1 µg/mL
9,COc1ccc(CCNC(=O)C2Cc3ccccc3C(=O)O2)cc1 (stereo unspecified),> 48.8 µg/mL
10,Cc1cc(C)cc(NC(=O)C[n+]2ccccc2)c1.[Cl-],> 41.5 µg/mL
11,CC(C(=O)Nc1ccc(S(=O)(=O)N2CCCC2)cc1)N1CCN(c2ccccc2O)CC1 (stereo unspecified),12.6 µg/mL
12,CCCc1cc(C(=O)Nc2ccc(CC)cc2)no1,1.4 µg/mL
13,Cc1cc(C)nc(Oc2ccc(Br)cc2)n1,35.5 µg/mL
14,COc1ccc(N2CCN(CCc3ccncc3)CC2)cc1,> 44.6 µg/mL
15,O=C(Nc1cccc2ccccc12)NC1CCCCC1,< 0.3 µg/mL
16,COc1cc2c(cc1OC)C(COc1ccc(C(C)C)cc1)NCC2 (stereo unspecified),35.1 µg/mL
17,CC(C)CC(=O)N/C(N)=N/c1nc2ccccc2o1,1.3 µg/mL
18,O=C(O)c1cc(S(=O)(=O)NCCN2CCNC2=O)ccc1O,> 49.4 µg/mL
19,Cc1ccc(SCC(=O)OCC(=O)NC2(C#N)CCCCC2)cc1,47.6 µg/mL
20,O=C(NCC(=O)N1CCN(c2ccccc2O)CC1)c1cccs1,> 51.8 µg/mL
21,CCNC1CCS(=O)(=O)C1 (stereo unspecified),> 24.5 µg/mL
22,CN1CCCC(OC(=O)c2ccccc2F)C1.Cl (stereo unspecified),39.7 µg/mL
23,COc1ccc(Nc2cc(Sc3ccc(OC)cc3)ncn2)cc1,4.6 µg/mL
24,S=c1[nH]c2ccccc2n2c(=S)[nH]nc12,> 35.1 µg/mL
25,CCCOc1nc(C)cc(COC)c1C(N)=O,> 35.7 µg/mL

row,SMILES,solubility kinetic
1,CN(C)CC(C)(C)CNCc1cc(=O)oc2ccc3ccccc3c12,> 50.8 µg/mL
2,O=C(O)CN1C(=O)c2ccc(Oc3ccc([N+](=O)[O-])cc3)cc2C1=O,> 51.3 µg/mL
3,Cc1ccc(NC(=S)NC(=O)Cc2ccccc2)c(O)c1,3.3 µg/mL
4,CCOc1ccc(Oc2ccccc2NC(=O)CCNC(C)=O)cc1,> 51.4 µg/mL
5,CCOC(=O)N1CCN(CCC(=O)Nc2cc(C)ccc2C)CC1,> 50 µg/mL
6,N#Cc1cccc(C(=O)Nc2ccc(S(=O)(=O)Nc3nccs3)cc2)c1,> 57.7 µg/mL
7,ON=C1c2ccccc2-c2ccccc21,1.3 µg/mL
8,CC(C)(C)NC(=O)C(OC(=O)c1ccco1)c1ccccc1F (stereo unspecified),> 47.9 µg/mL
9,CN(Cc1cc2ccccc2[nH]c1=O)C(=O)COc1ccccc1,13.8 µg/mL
10,CN(C(=S)Nc1ccc(Oc2ccccc2)cc1)c1ccc(O)cc1,> 52.6 µg/mL
11,CCCNC(=O)c1ccc2c(c1)S(=O)(=O)c1ccccc1C2=O,7.9 µg/mL
12,CC(NC(=O)CN1C(=O)c2ccccc2C1=O)c1ccccc1 (stereo unspecified),8.4 µg/mL
13,Cc1cccc(NC(=S)NCCc2ccccc2)c1C,4.1 µg/mL
14,O=C1ON=C(c2ccccc2)/C1=C/c1ccc(O)cc1,> 39.8 µg/mL
15,CCc1cccc(NC(=O)CCCCCC2NC(=O)NC2C)c1 (stereo unspecified),> 47.6 µg/mL
16,CC(=O)c1c(C)[nH]c(C(=O)COC(=O)c2ccc(Cl)nc2)c1C,3.9 µg/mL
17,CCCn1c(=O)c(C#N)cn(C2CC2)c1=O,32.4 µg/mL
18,O=C(c1cccc(S(=O)(=O)Nc2ccc(Br)cc2)c1)N1CCC1,58.9 µg/mL
19,COc1cc(NC(=O)c2ccccc2)ccc1NC(=O)Cc1ccccc1,< 0.4 µg/mL
20,Nc1cc(=O)[nH]c(SCC(=O)N2CCCC2)n1,> 38.1 µg/mL
21,CCN(CC(=O)Nc1c(F)cccc1F)C(=O)Cc1ccccc1,> 49.9 µg/mL
